Each structure is given as a SMILES string. In brackets after ≈: the same amount, converted by molar mass. Where only a bound is given, the exact number is not on record here.

For the data set the following is noted: buffer; pH 7.4; 200.0 µM.
`O=C(NN1CCOCC1)c1ccccc1`: the kinetic solubility is > 30.9 µg/mL.
On to `Cn1cc(C(=O)Nc2ccccn2)c(=O)c2ccccc21`, for which the kinetic solubility came out at 1.3 µg/mL (≈ 4.65 µM).
For the compound `O=C(NC(=O)N1CCCCC1)c1ccc(Cl)cc1`, the kinetic solubility was > 40 µg/mL.
`Cc1cccc(CCNC(=O)c2oc3c(C)c(C)ccc3c2C)n1` yielded a solubility (kinetic) of 1.9 µg/mL (≈ 5.89 µM).
In turn, `Cc1onc(-c2ccccc2)c1CNS(=O)(=O)c1ccccc1` yielded a solubility (kinetic) of 44 µg/mL (≈ 134 µM).
The result for `CN(CC(O)COc1ccc2ccccc2c1)C1CCCCC1.Cl` (configuration not stated) reads > 52.5 µg/mL; that for `Cc1ccccc1OCCC(=O)OCC(=O)NC1CC1`, > 41.6 µg/mL; that for `COc1ccc(NC(=S)NC2CC3CCCC(C2)N3C2CC2)cc1` (configuration not stated), > 51.8 µg/mL.
As to `COc1ccc(Nc2ccc([N+](=O)[O-])c3nonc23)c(OC)c1`, the kinetic solubility was < 0.2 µg/mL.
`CCCCC(=O)Nc1ccccc1N1CCN(c2ccc(F)cc2)CC1` registered a kinetic solubility of 4.3 µg/mL (≈ 12.1 µM).
The compound `CCC(C)NC(=O)N1c2ccccc2Sc2ccccc21` (configuration not stated) returned a kinetic solubility of 28 µg/mL (≈ 93.8 µM).
In the case of `N/C(=N\OC(=O)c1ccc(F)cc1)c1cccc([N+](=O)[O-])c1` it was 2.3 µg/mL (≈ 7.58 µM).
Take `COc1cc(/C=C2/CC(C)OC2=O)c([N+](=O)[O-])cc1OC` (configuration not stated): the kinetic solubility is > 44 µg/mL.
Regarding `Cc1ccc(N2C(=O)NC(=O)/C(=C\C=C\c3ccco3)C2=O)cc1`, the kinetic solubility was 8.8 µg/mL (≈ 27.3 µM).
`CNC(=O)CC1C(=O)N(C)C(=S)N1NC(=O)c1ccccc1` (configuration not stated): the solubility (kinetic) was > 48.1 µg/mL.
Compound `CC(C)C(NC(=O)CN1C(=O)c2cccc3cccc1c23)C(C)C` returned a kinetic solubility of 2.1 µg/mL (≈ 6.47 µM).
In the case of `O=C(NCc1ccccn1)Nc1ccccc1`, the solubility (kinetic) is > 34.1 µg/mL.
Regarding `NS(=O)(=O)c1ccc(CNC(=O)Cc2ccsc2)cc1`, the kinetic solubility is > 46.6 µg/mL.
`CSCC[C@H](NC(=O)c1ccc(OCC2CCCO2)cc1)c1nc2ccccc2[nH]1` (some centres not stated): the kinetic solubility turned out to be 56.9 µg/mL (≈ 134 µM).
As for `c1ccc2[nH]c(-c3ccncc3)nc2c1`, the kinetic solubility was > 29.3 µg/mL.
`CC(O)CNC12CC3CC(CC(C3)C1)C2` (configuration not stated) displayed a kinetic solubility of 29.6 µg/mL (≈ 141 µM).
In turn, `CC1CCC2(CC1)NC(=O)N(CC(=O)Nc1ccc3c(c1)OCO3)C2=O` (configuration not stated) showed a solubility (kinetic) of 15.6 µg/mL (≈ 43.4 µM).
For `O=C(COc1ccccc1)NCC(=O)Nc1ccncc1`, the kinetic solubility is > 42.8 µg/mL.
Take `O=c1[nH]cc(S(=O)(=O)N2CCOCC2)c(=O)[nH]1`: the kinetic solubility was > 39.2 µg/mL.
For `O=C(Cc1cccs1)NCc1cccc(Br)c1`, the kinetic solubility was > 46.5 µg/mL.
In the case of `Cc1cc(Br)ccc1NC(=S)NC1CCCC1` it was 19.1 µg/mL (≈ 61 µM).
`CN(C(=O)c1ccc2ccccc2c1)c1ccccn1`: the kinetic solubility is > 39.3 µg/mL.
Turning to `O=C(O)CCCCCNC(=O)C(=O)C1C(=O)Nc2ccccc21` (configuration not stated), the solubility (kinetic) was > 47.7 µg/mL.
On to `Cc1ccc(NC(=O)CNC(=O)c2ccco2)c(Cl)c1`, for which the kinetic solubility was > 43.9 µg/mL.
With `COP(=O)(OC)C(NC(C)=O)C(Cl)(Cl)Cl` (configuration not stated), the solubility (kinetic) is > 44.8 µg/mL.
Turning to `Cc1ccc(C(=O)c2cc(Br)ccc2N)cc1`, the kinetic solubility was determined as 2.9 µg/mL (≈ 9.99 µM).
As to `Cc1nc(N2CCN(c3ccccc3)CC2)[nH]c(=O)c1C`, the solubility (kinetic) was found to be 39.5 µg/mL (≈ 139 µM).
Take `COc1cc(CC(=O)OCC(=O)NCc2ccco2)cc(OC)c1OC`: the solubility (kinetic) is > 54.5 µg/mL.
Take `COc1ccc(Sc2nc(-c3ccccc3)ncc2OC)cc1`: the solubility (kinetic) was < 0.3 µg/mL.
`Cc1ccc2c(c1C)NC(=O)CC(c1ccccc1O)=N2` returned a solubility (kinetic) of 0.6 µg/mL (≈ 2.14 µM).
For `O=C(C1CCCC1)N1CCCC(Nc2ccc(F)cc2)C1` (configuration not stated), the kinetic solubility is > 43.6 µg/mL.
Regarding `Cc1cccc(CNC(=O)C2CCC(=O)N(C3CCCCCC3)C2)c1` (configuration not stated), the kinetic solubility was > 51.4 µg/mL.
In the case of `Cc1cc(SCc2ccccc2F)nc(=O)[nH]1`, the kinetic solubility was > 37.5 µg/mL.
In turn, `O=C(/C=C/c1ccc2c(c1)OCO2)NCc1ccncc1` came in with a kinetic solubility of 42.1 µg/mL (≈ 149 µM).
`Cc1ccc(NS(=O)(=O)c2ccc(F)cc2)nc1` returned a kinetic solubility of 34.4 µg/mL (≈ 129 µM).
With `CCO/C=C1\C(=O)N(c2ccc(OCC)cc2)C(=O)c2ccccc21`, the kinetic solubility was > 50.6 µg/mL.
Regarding `CCOc1nc(Nc2ccccc2F)nc(OCC)n1`, the kinetic solubility was 10.4 µg/mL (≈ 37.4 µM).
The compound `COc1ccc(NS(=O)(=O)c2cccc3ccccc23)cc1` had a solubility (kinetic) of 22.4 µg/mL (≈ 71.5 µM).
In the case of `OCCNC(=S)c1ccccc1`, the solubility (kinetic) stood at 25.7 µg/mL (≈ 142 µM).
For `Cc1cc(C)nc(N(C#N)Cc2cccc(Cl)c2)n1`, the solubility (kinetic) came to 23.6 µg/mL (≈ 86.5 µM).
As to `Cn1cc(S(=O)(=O)N2CCCC(C(=O)O)C2)cn1` (configuration not stated), the kinetic solubility was > 41 µg/mL.
The compound `CCN(CC)S(=O)(=O)c1ccc(OC)c(N)c1` yielded a solubility (kinetic) of 35.1 µg/mL (≈ 136 µM).
The result for `CCCCNC(=O)CSc1nc2ccc(C)cc2[nH]1` reads > 41.6 µg/mL; that for `COc1cccc(/C=C(/C(=O)OCC(N)=O)c2ccccc2)c1`, > 46.7 µg/mL.
`CN(C)C=Nc1nonc1-c1ccccc1` displayed a solubility (kinetic) of 24.4 µg/mL (≈ 113 µM).
Regarding `O=C(COC(=O)CNC(=O)C1CCCCC1)NCc1ccccc1`, the kinetic solubility is > 49.9 µg/mL.
With `CC1(C)NC(=O)N(CC(=O)OCC(=O)c2ccc(Br)s2)C1=O`, the solubility (kinetic) was > 58.4 µg/mL.
In the case of `COc1ccc(-c2csc(N)n2)cc1F` it was 23.8 µg/mL (≈ 106 µM); in that of `CC1CCN(C(=O)CC#N)CC1`, > 24.9 µg/mL.
In turn, `COc1ccc(-c2cc(C(=O)N3CCCCCC3)no2)cc1` displayed a solubility (kinetic) of 4 µg/mL (≈ 13.3 µM).
The result for `N#CCc1nc(C(c2ccccc2)c2ccccc2)no1` reads 33.5 µg/mL (≈ 122 µM); that for `CC1C/C(=N\NC(=O)c2cccnc2)CC(C)(C)C1` (configuration not stated), > 38.9 µg/mL.
Consider `O=C(O)c1ccc(N=Nc2c(-c3ccccc3)[nH]oc2=O)cc1`, for which the kinetic solubility is > 46.4 µg/mL.
Turning to `CCc1ccc(NC(=O)CCc2nc3ccccc3[nH]2)cc1`, the kinetic solubility is 0.7 µg/mL (≈ 2.39 µM).
For `CCOc1cccc(CNc2nnnn2C)c1`, the kinetic solubility was > 35 µg/mL.
`COCCSc1ccccc1C(=O)Nc1ccccc1C(C)C` yielded a solubility (kinetic) of 48.9 µg/mL (≈ 148 µM).
For the compound `O=c1c2ccccc2nc2ccccn12`, the solubility (kinetic) worked out at 28.7 µg/mL (≈ 146 µM).
In turn, `N#CCCSc1ccccc1NC(=O)c1cc(=O)c2ccccc2o1` displayed a kinetic solubility of 2.2 µg/mL (≈ 6.28 µM).
With `CNC(=O)c1sc(NCc2ccccc2OC)nc1C`, the solubility (kinetic) is > 43.7 µg/mL.
With `N#Cc1c(CSCC(=O)O)cc(=O)n2c1[nH]c1ccccc12`, the solubility (kinetic) is 46.9 µg/mL (≈ 150 µM).
In the case of `CCOC(=O)N1CCc2c(sc3ncn(C)c(=O)c23)C1` it was 36.7 µg/mL (≈ 125 µM); in that of `O=C1CN(C(=O)COC(=O)Cc2ccccc2F)c2ccccc2N1`, > 51.3 µg/mL; in that of `S=C(NCCc1ccccc1)N1CCN(C2CCCCC2)CC1`, 16.6 µg/mL (≈ 50.1 µM).
The compound `Cc1cccc(NC(=O)C[n+]2ccc(N(C)C)cc2)c1.[Cl-]` came in with a kinetic solubility of 45.9 µg/mL.
`CCOc1ccccc1CN1CCN(Cc2ccon2)CC1CCO` (configuration not stated) came in with a kinetic solubility of 48.9 µg/mL (≈ 142 µM).
`CCN1CCc2c(C#N)c(NCc3ccccc3)nc(NCCO)c2C1` displayed a solubility (kinetic) of 6.3 µg/mL (≈ 17.9 µM).
`CC(NC(=O)CCSCc1ccccc1F)c1ccccc1` (configuration not stated) came in with a kinetic solubility of 44.5 µg/mL (≈ 140 µM).
In the case of `O=C(Nc1ccc(Cl)c(Cl)c1)N1CCCCCC1` it was 0.9 µg/mL (≈ 3.13 µM); in that of `COc1cc([N+](=O)[O-])ccc1NC(=O)CSc1nccn1C`, 42.5 µg/mL (≈ 132 µM).
Turning to `CCn1cc(S(=O)(=O)Nc2cccnc2)cn1`, the kinetic solubility is > 37.8 µg/mL.
Regarding `COc1cc(/C=N/NC(=O)CNC(=O)c2ccncc2)ccc1OC(C)=O`, the kinetic solubility is > 55.6 µg/mL.
As for `COc1ccc(C(=O)CN2CCN(c3ccc(F)cc3)CC2)cc1`, the solubility (kinetic) came to 13 µg/mL (≈ 39.6 µM).

(Values after PubChem BioAssay AID1996.)
